# What was measured:
# [1] = system: DAOY (human medulloblastoma cell strain); assay: MTT assay using a human medulloblastoma cell strain (Example 2, relative growth); format: cell-based; conditions: DAOY cells
# From the text: Cell growth effects were examined on 3,5-dimethylpiperidyl 3-methyl-4-nitrophenyl ketone (compound 155) and 1-[4-(difluoromethoxy)phenyl]-2-(3,5-dimethylpiperidyl)ethan-1-one (compound A28) (MTT assay using a human medulloblastoma cell strain).
# Compounds: 3,5-dimethylpiperidyl 3-methyl-4-nitrophenyl ketone (compound 155) (purchased from SPECS); 1-[4-(difluoromethoxy)phenyl]-2-(3,5-dimethylpiperidyl)ethan-1-one (compound A28) (purchased from Enamine)
# Cell: DAOY (human medulloblastoma cell strain) (provided by Kanno, Department of Neurosurgery, School of Medicine, Yokohama City University)
# (§1) Medium: DMEM (High Glucose, Nacalai Tesque)
# Reagent for cell counting: MTT cell counting kit (Nacalai Tesque) MTT Assay: (operations)
# Day −1: DAOY was plated on three 96-well plates at 5×10^3 cells/well. These three plates were for use on day 0, day 1 and day 3, respectively. As a medium, 10% FBS-containing DMEM was used.
# Day 0: MTT assay was carried out using the plate for day 0 to measure the activity at the basal cell count. With respect to the plates for day 1 and day 3, the compound was added to give a concentration of 100 μg/ml (as controls, DMEM alone and DMEM containing DMSO (solvent) were used). Specifically, the compound-containing DMEM was prepared in advance, and the compound was added to the plate through medium exchange. At this time, FBS concentration was lowered to 5% in order to prevent the masking of the compound's effect due to excessive growth signals. Day 1: MTT assay was carried out using the plate for day 1. Day 3: MTT assay was carried out using the plate for day 3. Data Analysis: Relative growths on day 1 and day 3 were calculated, with the average of MTT activities (Ab 570 nm) on day 0 in the rows of wells for addition of the respective compounds being taken, as 100.
# Each experiment was performed in quadruple and each run was repeated three times. Relative values based on the values of day 0 were used to calculate data for n=12 wells and statistical tests were performed.
# Test was by t-test between the cell count with DMEM alone and the cell count with the compound or DMSO.
# MIT Assay: A technique for cell counting using the respiratory activity of mitochondria as an indicator. When the respiratory activity is high (the value at Ab 570 nm is high), it can be interpreted that the cell count is large.
# [2] = system: Nav 1.8; assay: Quantitative real time PCR of Nav 1.8 mRNA in dorsal root ganglia after nerve injury; format: in vivo, C57BL male mice; conditions: 0.5 nmol i.t., single administration 3 days after nerve injury
# [3] = system: MOP; assay: Quantitative real time PCR of MOP mRNA in dorsal root ganglia after nerve injury; format: in vivo, C57BL male mice; conditions: 0.5 nmol i.t., single administration 3 days after nerve injury; 3, 6 and 12 hours after administration; n=3; tendency
# [4] = system: neuropathic pain model by partial sciatic nerve ligation; assay: Electrical stimulation-induced paw withdrawal (EPW) test, hypoesthesia after nerve injury; format: in vivo, C57BL male mice; conditions: 0.5 nmol i.t. once per day from 3 days after nerve injury; observed 4 and 5 days after injury
# [5] = system: neuropathic pain model by partial sciatic nerve ligation; assay: Thermal paw withdrawal test, morphine resistance after nerve injury; format: in vivo, C57BL male mice; conditions: compound 0.5 nmol i.t. from 3 days after injury; morphine 30 nmol i.pl. 5 days after injury
# [6] = system: DAOY (human medulloblastoma cell strain); assay: MTT assay, growth inhibition against human medulloblastoma cells (Example 3); format: cell-based; design: dose or concentration left out as unconfirmed; conditions: final concentration 200
# Description: Compounds: No. 5, No. 15, No. 23, NCR 6, NCR 7, NCR 11, NCR 13, NCR 14, NCR 15
# Cell: DAOY (human medulloblastoma cell strain)
# as §1
# Reagent for cell counting: MTT cell counting kit (Nacalai Tesque) *Hereinafter, referred to as MTT assay.
# DAOY was plated on three 96-well plates at 5×10^3 cells/well. These three plates were for use on day 0, day 1 and day 3, respectively. As a medium, 10% FBS-containing DMEM was used.
# The medium in the plate for day 0 was exchanged with 5% FBS-containing DMEM, and cells were cultured therein for 30 minutes. Then, MTT assay was carried out to measure the activity at the basal cell count.
# With respect to the plates for day 1 and day 3, the medium was exchanged with 5% FBS-containing medium, and the compound was added simultaneously at this time (as a control, DMSO (the solvent) alone was added).
# MTT assay was carried out using the plate for day 1.
# MTT assay was carried out using the plate for day 3.
# Relative growths on day 1 and day 3 were calculated, with the average of MTT activities (Ab 570 nm) […] in the rows of wells for the respective compounds being taken as 100. Each experiment was performed in quadruple.
# Statistical test was performed by compound-treated cells and DMSO-treated cells.
# [7] = Day 0, basal cell count before compound addition
# [8] = Day 1, compound 100 μg/ml, 5% FBS DMEM
melting point,SMILES,other results
74.5 to 76 °C,"CCN(CC)C(=O)c1ccc([N+](=O)[O-])c(C)c1 [NCR-9, N,N-Diethyl-3 Methyl-4-Nitrobenzamide]",
132.7 to 138.5 °C,"Cc1cc(S(=O)(=O)N2CC(C)CC(C)C2)ccc1[N+](=O)[O-] (stereo not drawn) [NCR-12, 3,5-Dimethyl-1-[(3-Methyl-4-Nitrophenyl)sulfonyl]piperidine]",
99.7 to 100.5 °C,"Cc1cc(C(=O)N2C(C)CCCC2C)ccc1[N+](=O)[O-] (stereo not drawn) [NCR-17, 2,6-Dimethyl-1-(3-Methyl-4-Nitrobenzoyl)piperidine]",
82 to 82.8 °C,"Cc1cc(C(=O)N2CCCC(C)C2)ccc1[N+](=O)[O-] (stereo not drawn) [NCR-3, 3-Methyl-1-(3-Methyl-4-Nitrobenzoyl)piperidine]",
71.7 to 72.2 °C,"Cc1cc(C(=O)N2CCCCC2)ccc1[N+](=O)[O-] [NCR-8, 1-(3-Methyl-4-Nitrobenzoyl)piperidine]",
134.2 to 141 °C,"Cc1cc(C(=O)NC2CCCCC2)ccc1[N+](=O)[O-] [NCR-22, N-Cyclohexyl-3-Methyl-4-Nitrobenzamide]",
,"Cc1cc(C(=O)N2CC(C)CC(C)C2)ccc1[N+](=O)[O-] (stereo not drawn) [compound 155, 3,5-dimethylpiperidyl 3-methyl-4-nitrophenyl ketone]","Relative Growth (MTT activity, Ab 570 nm, day 0 average taken as 100) [1, 7]: 100.00 ± 5.08; Relative Growth (MTT activity, Ab 570 nm, day 0 average taken as 100) [1, 8]: 123.16 ± 10.03; Relative Growth (MTT activity, Ab 570 nm, day 0 average taken as 100) ([1]; Day 3, compound 100 μg/ml, 5% FBS DMEM): 105.07 ± 17.53"
107.6 to 109.7 °C,"Cc1cc(C(=O)N(C(C)C)C(C)C)ccc1[N+](=O)[O-] [NCR-15, N,N-Diisopropyl-3-Methyl-4-Nitrobenzamide]",
105.8 to 108.7 °C,"Cc1cc(C(=O)N(Cc2ccccc2)Cc2ccccc2)ccc1[N+](=O)[O-] [NCR-18, N,N-Dibenzyl-3-Methyl-4-Nitrobenzamide]",
,"CC1CC(C)CN(CC(=O)c2ccc(OC(F)F)cc2)C1 (stereo not drawn) [compound A28, 1-[4-(difluoromethoxy)phenyl]-2-(3,5-dimethylpiperidyl)ethan-1-one]","time needed for the effect on Nav 1.8 and MOP expression to appear [2]: 3 to 6 h; recovery of the lowering of expression of Nav 1.8 after nerve injury ([2]; 3, 6 and 12 hours after administration, n=3, tendency): 10-15%; Relative Growth (MTT activity, Ab 570 nm, day 0 average taken as 100) [1, 7]: 100.00 ± 6.56; Relative Growth (MTT activity, Ab 570 nm, day 0 average taken as 100) [1, 8]: 233.28 ± 1.69; recovery of the lowering of expression of MOP after nerve injury [3]: 10-15%"
107.2 to 108.7 °C,"CC1CC(C)CN(C(=O)c2ccccc2)C1 (stereo not drawn) [NCR-6, 1-(Benzoyl)-3,5-Dimethyl piperidine]",
,"CC(C)CCNC(=O)CCC(=O)NCc1ccc(F)cc1 [compound 106, N-[(4-fluorophenyl)methyl]-N′-(3-methylbutyl)butane-1,4-diamide]","effect on hypoesthesia (pain threshold in response to C-fiber stimulation), EPW test [4]: no effect on pain threshold; peripheral morphine analgesia after nerve injury, thermal paw withdrawal test [5]: morphine analgesia was hardly recognized"
120 to 125 °C,"CC1CC(C)CN(C(=O)c2ccc([N+](=O)[O-])cc2)C1 (stereo not drawn) [NCR-2, 3,5-Dimethyl-1-(4-Nitrobenzoyl)piperidine]",
113.5 to 115.4 °C,"CC1CC(C)CN(C(=O)c2ccc(Cl)cc2)C1 (stereo not drawn) [NCR-11, 3,5-Dimethyl-1-(4-Chlorobenzoyl)piperidine]",
70.2 to 71.3 °C,"CC1CCCN(C(=O)c2ccc([N+](=O)[O-])cc2)C1 (stereo not drawn) [NCR-4, 3-Methyl-1-(4-Nitrobenzoyl)piperidine]",
,"Cc1cc(CN2CC(C)CC(C)C2)ccc1[N+](=O)[O-] (stereo not drawn) [NCR 7, 3,5-Dimethyl-1-(3-Methyl-4-Nitrobenzyl)piperidine]",cytotoxicity (MTT assay) [6]: cytotoxicity was observed
61.3 to 61.9 °C,"Cc1cc(C(=O)N2CCCC2)ccc1[N+](=O)[O-] [NCR-19, 1-(3-Methyl-4-Nitrobenzoyl)pyrrolidine]",

# From patent US9206125B2, “Use of compound binding to mSin3B that specifically binds to neuron restrictive silencer factor (NRSF)” (PUBLIC UNIVERSITY CORPORATION YOKOHAMA CITY UNIVERSITY, priority 2010, dated 2015)
